What was measured:
[1] = target: 3',5'-cyclic-AMP phosphodiesterase 4B (Homo sapiens, UniProt Q07343); assay: Inhibition of human recombinant PDE4B2 expressed in baculovirus expression system using cAMP as substrate incubated for 2 hrs by HTRF assay
[2] = target: Muscarinic acetylcholine receptor M3 (Homo sapiens, UniProt P20309); assay: Displacement of [3H]N-methylscopolamine chloride from human muscarinic M3 receptor incubated for 2 hrs by radioligand binding assay
Rattus norvegicus [3] = assay: Anti-inflammatory activity against OVA-sensitized Brown-Norway rat airway inflammation model assessed as inhibition of OVA-induced eosinophil influx administered IT(Intratracheal) 2 hrs prior to OVA challenge; type: functional
Trachea = assay: Bronchoconstriction activity in Sprague-Dawley rat trachea assessed as inhibition of carbachol-induced tracheal contraction; type: functional, tissue-based; conditions: for IC50: Rattus norvegicus, Sprague-Dawley, Trachea
Rattus norvegicus [4] = assay: Anti-bronchospastic activity in carbachol-induced bronchospasm Sprague-Dawley rat model assessed as inhibition of carbachol-induced bronchoconstriction at 10 nmol/kg, IT(Intratracheal) administered 16 hr prior to carbachol challenge; type: functional; design: scale not given: the % may be the effect or the level left
[5] = Antiinflammatory activity against LPS-stimulated human PBMC cells assessed reduction in TNFalpha level incubated for 18 hrs by ELISA analysis; type: functional, cell-based; conditions: for IC50: Homo sapiens, PBMC, 18 h
[6] = Ratio of ED50 for Anti-inflammatory activity against OVA-sensitized Brown-Norway rat airway inflammation model to ED50 for Anti-bronchospastic activity in carbachol-induced bronchospasm Sprague-Dawley rat model; type: functional
Rattus norvegicus [7] = assay: Anti-bronchospastic activity in carbachol-induced bronchospasm Sprague-Dawley rat model assessed as inhibition of carbachol-induced bronchoconstriction administered IT(Intratracheal) for 1 hr prior to carbachol challenge; type: functional; conditions: Rattus norvegicus, Sprague-Dawley, read-out: ED50
Rattus norvegicus [8] = assay: Anti-bronchospastic activity in carbachol-induced bronchospasm Sprague-Dawley rat model assessed as inhibition of carbachol-induced bronchoconstriction at 10 nmol/kg, IT(Intratracheal) administered 1 hr prior to carbachol challenge; type: functional; design: scale not given: the % may be the effect or the level left
[9] = Metabolic stability in rat liver microsomes assessed as intrinsic clerance at 1 uM and measured upto 60 mins by HPLC-MS/MS analysis; type: ADME, Microsome; conditions: microsomes, 1 h, 1 µM
[10] = Metabolic stability in human liver microsomes assessed as intrinsic clerance at 1 uM and measured upto 60 mins by HPLC-MS/MS analysis; type: ADME, Microsome
[11] = Metabolic stability in human plasma assessed as half life at 5 uM and measured upto 180 mins by HPLC-MS/MS analysis; type: ADME, cell-free
[12] = Metabolic stability in rat lung S9 fraction assessed as half life at 1 uM and measured upto 60 mins in presence of NADPH by LC-MS/MS analysis; type: ADME, subcellular; conditions: s9, 1 h, 1 µM, 1 h
[13] = Metabolic stability in rat plasma assessed as half life at 5 uM and measured upto 180 mins by HPLC-MS/MS analysis; type: ADME, cell-free
[14] = Metabolic stability in human lung S9 fraction assessed as half life at 1 uM and measured upto 60 mins in presence of NADPH by LC-MS/MS analysis; type: ADME, subcellular

Chain of Muscarinic acetylcholine receptor M3 (P20309 whole entry): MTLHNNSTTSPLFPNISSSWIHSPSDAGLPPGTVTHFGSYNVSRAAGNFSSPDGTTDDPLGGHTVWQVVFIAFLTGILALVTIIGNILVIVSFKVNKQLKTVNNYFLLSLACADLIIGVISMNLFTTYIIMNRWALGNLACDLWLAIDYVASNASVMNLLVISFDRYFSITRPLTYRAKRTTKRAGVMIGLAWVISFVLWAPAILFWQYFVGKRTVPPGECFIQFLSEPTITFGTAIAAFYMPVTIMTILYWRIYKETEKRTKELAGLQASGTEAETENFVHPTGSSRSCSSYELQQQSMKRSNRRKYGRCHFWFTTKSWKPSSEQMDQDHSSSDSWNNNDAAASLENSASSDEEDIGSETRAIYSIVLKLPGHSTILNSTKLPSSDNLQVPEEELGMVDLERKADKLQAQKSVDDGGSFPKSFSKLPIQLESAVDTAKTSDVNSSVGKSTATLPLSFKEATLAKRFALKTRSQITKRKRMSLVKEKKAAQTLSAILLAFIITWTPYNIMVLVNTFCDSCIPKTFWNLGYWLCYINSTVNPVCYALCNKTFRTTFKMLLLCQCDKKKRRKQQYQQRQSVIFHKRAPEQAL
Chain of 3',5'-cyclic-AMP phosphodiesterase 4B (Q07343 whole entry): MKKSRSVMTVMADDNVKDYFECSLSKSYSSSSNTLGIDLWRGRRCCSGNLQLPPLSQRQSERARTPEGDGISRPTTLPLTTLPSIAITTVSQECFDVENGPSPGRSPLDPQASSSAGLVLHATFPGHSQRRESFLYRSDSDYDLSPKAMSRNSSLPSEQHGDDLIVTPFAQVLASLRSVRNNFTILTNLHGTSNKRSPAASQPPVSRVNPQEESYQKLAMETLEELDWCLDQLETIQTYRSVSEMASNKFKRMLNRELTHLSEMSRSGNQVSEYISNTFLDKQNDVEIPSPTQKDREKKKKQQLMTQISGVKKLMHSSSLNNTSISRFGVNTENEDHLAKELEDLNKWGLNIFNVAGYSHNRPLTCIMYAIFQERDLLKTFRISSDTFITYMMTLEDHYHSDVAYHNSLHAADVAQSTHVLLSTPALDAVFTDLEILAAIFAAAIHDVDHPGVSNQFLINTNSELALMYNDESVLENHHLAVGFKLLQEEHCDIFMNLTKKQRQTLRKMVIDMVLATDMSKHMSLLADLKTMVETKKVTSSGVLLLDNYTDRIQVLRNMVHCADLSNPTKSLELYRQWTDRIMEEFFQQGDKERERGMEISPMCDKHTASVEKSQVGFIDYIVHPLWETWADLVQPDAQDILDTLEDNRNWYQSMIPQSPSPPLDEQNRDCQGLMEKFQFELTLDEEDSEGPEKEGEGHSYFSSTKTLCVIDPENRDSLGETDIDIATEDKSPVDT

Work on `CS(=O)(=O)N1CCC[C@H]1C(=O)O[C@@H](Cc1c(Cl)c[n+]([O-])cc1Cl)c1ccc(OC(F)F)c(OCC2CC2)c1` yielded an IC50 [1] of 0.501 nM.

In the case of `CN(C)C(=O)c1cccc(S(=O)(=O)N2CCC[C@H]2C(=O)O[C@@H](Cc2c(Cl)c[n+]([O-])cc2Cl)c2ccc(OC(F)F)c(OCC3CC3)c2)c1`, the IC50 [1] is reported as 0.0398 nM.

In the case of `COc1cc(C(=O)O[C@@H](Cc2c(Cl)c[n+]([O-])cc2Cl)c2ccc(OC)c(OC)c2)ccc1CNC(C(=O)O[C@H]1CN2CCC1CC2)c1ccccc1` (some centres not stated), the Ki [2] is reported as 0.631 nM and the IC50 [1] is reported as 5.01 nM.

Work on `COc1ccc([C@H](Cc2c(Cl)c[n+]([O-])cc2Cl)OC(=O)c2ccc(CNC(C(=O)O[C@H]3CN4CCC3CC4)c3ccccc3)cc2)cc1OC` (some centres not stated) yielded a Ki [2] of 0.251 nM and an IC50 [1] of 2.51 nM.

With `CCOc1cc([C@H](Cc2c(Cl)c[n+]([O-])cc2Cl)OC(=O)c2ccc(CN[C@](CO)(C(=O)O[C@H]3CN4CCC3CC4)c3ccccc3)s2)ccc1OC` the ED50 (Rattus norvegicus [3]) was 0.024 µmol/kg, the IC50 (Trachea) was 3.98 nM and the Activity (Rattus norvegicus [4]) was 82%. The IC50 [5] was 0.398 nM, the “Ratio ED50” value [6] was 7.7 and the Ki [2] was 0.251 nM. It also gave an ED50 (Rattus norvegicus [7]) of 0.0031 µmol/kg, an IC50 [1] of 0.631 nM and an Activity (Rattus norvegicus [8]) of 89%.

`CCOc1cc([C@H](Cc2c(Cl)cncc2Cl)OC(=O)c2ccc(CN[C@@](CO)(C(=O)O[C@H]3CN4CCC3CC4)c3ccccc3)s2)ccc1OC` showed a Ki [2] of 3.16 nM and an IC50 [1] of 7.94 nM.

In the case of `CCOc1cc([C@@H](Cc2c(Cl)c[n+]([O-])cc2Cl)OC(=O)c2ccc(CN[C@@](CO)(C(=O)O[C@H]3CN4CCC3CC4)c3ccccc3)s2)ccc1OC`, the Ki [2] is reported as 25.1 nM and the IC50 [1] is reported as 6.31 nM.

Work on `CCOc1cc(C(=O)O[C@@H](Cc2c(Cl)c[n+]([O-])cc2Cl)c2ccc(OC)c(OC)c2)ccc1CNC(C(=O)O[C@H]1CN2CCC1CC2)c1ccccc1` (some centres not stated) yielded a Ki [2] of 1 nM and an IC50 [1] of 7.94 nM.

In the case of `COc1ccc([C@H](Cc2c(Cl)c[n+]([O-])cc2Cl)OC(=O)c2ccc(CNC(C(=O)O[C@H]3CN4CCC3CC4)c3ccccc3)c(OCC3CC3)c2)cc1OC` (some centres not stated), the Ki [2] is reported as 2.51 nM and the IC50 [1] is reported as 1 nM.

Work on `COc1ccc([C@H](Cc2c(Cl)c[n+]([O-])cc2Cl)OC(=O)c2ccc(CNC(C)(C(=O)O[C@H]3CN4CCC3CC4)c3ccccc3)s2)cc1OC` (stereo in doubt; 1f) yielded a CLH [9] of 481 µL/min/mg, an IC50 (Trachea) of 2.51 nM and an IC50 [5] of 15.8 nM. The microsomal CLint at 1 µM ([10]; liver microsomes, read-out: CLH) was 470 µL/min/mg, the half-life at 5 µM [11] was 174 min and the t1/2 [12] was 280 min. For the same molecule, the Ki [2] was 0.2 nM, the IC50 [1] was 3.98 nM and the half-life at 5 µM [13] was 86 min. The half-life at 1 µM ([14]; lung S9 fraction) was 110 min.

`COc1ccc([C@H](Cc2c(Cl)c[n+]([O-])cc2Cl)OC(=O)c2ccc(CNC(C)(C(=O)O[C@H]3CN4CCC3CC4)c3ccccc3)s2)cc1OC` (stereo in doubt; 1s) showed a CLH [9] of 48 µL/min/mg, a pIC50 (Trachea) of 8.5 and a pIC50 ([5]; pbmc) of 7.9. The CLH ([10]; microsomes, 1 h, 1 µM) was 481 µL/min/mg, the t1/2 ([11]; 3 h, 5 µM) was 191 min and the t1/2 [12] was 109 min. The Ki [2] was 0.158 nM, the IC50 [1] was 1.26 nM and the t1/2 ([13]; 3 h, 5 µM) was 59 min. For the same molecule, the t1/2 ([14]; s9, 1 h, 1 µM, 1 h) was 125 min.

In the case of `CCC(NCc1ccc(C(=O)O[C@@H](Cc2c(Cl)c[n+]([O-])cc2Cl)c2ccc(OC)c(OC)c2)s1)(C(=O)O[C@H]1CN2CCC1CC2)c1ccccc1` (stereo in doubt; 2f), the IC50 (Trachea) is reported as 25.1 nM, the IC50 [5] is reported as 2.51 nM and the Ki [2] is reported as 0.316 nM. It also gave an IC50 [1] of 2.51 nM.
